Columns and labels:
Type in all cases: biochemical
human stromelysin (Sln) = human stromelysin (Sln) (Homo sapiens, UniProt P08254); assay: In vitro MMP inhibition assay (hydrolysis of fluorogenic MCA peptide substrate), stromelysin; conditions: Table 1; Ki,app; MCA peptide substrate 10 μM, 37° C., pH 7.5, 2% DMSO; read-out: Sin Ki
Protocol: The catalytic domain of human stromelysin (Sln) was obtained by expression and purification of a C-terminally truncated prostromelysin-1 from E. coli host BL21 (see Marcy et al. Biochem., 1991, 30, 6476). The subsequent activation of the mature form (Sln) was completed with 2 mM APMA for 1 hour at 37° C., followed by separation using a sizing column.
(§1) Assays were performed in assay buffer (50 mM Tricine pH 7.5, 200 mM sodium chloride, 10 mM calcium chloride, 0.5 mM zinc acetate containing 2% dimethyl sulfoxide (DMSO)) once the substrate and inhibitor were diluted into it. Stock solutions of inhibitors were prepared in 100% DMSO. Stock solutions of the substrate were prepared in 100% DMSO at a concentration of 6 mM.
(§2) The assay method was based on the hydrolysis of MCA-Pro-Leu-Gly-Leu-DPA-Ala-Arg-NH2 (American Peptide Co.) at 37° C. (see Knight, C. G. et al., FEBS, 1992, 296, 263-266). The fluorescence changes were monitored with a Perkin-Elmer LS-50B fluorimeter using an excitation wavelength of 328 nm and an emission wavelength of 393 nm. The substrate concentration used in the assays was 10 μM. The inhibitor was diluted into the assays from a solution in 100% DMSO, and controls substituted an equal volume of DMSO so that the final DMSO concentration from inhibitor and substrate dilution in all assays was 2%. […] Proper determination of steady-state rates of substrate cleavage required assay lengths of 60 minutes to allow for complete equilibration of the enzyme-inhibitor complex.
(§3) The Km for the MCA peptide substrate with the matrix metalloproteinases is quite high and exceeds its solubility under assay conditions. Consequently, the apparent Ki (Ki,app) was determined to describe the strength of inhibition. However, in this case, Ki,app would be essentially equal to Ki since [S]<<Km. For the determination of Ki,app, the concentration of the inhibitor was varied at a constant and low concentration of substrate and the steady-state rates of fluorescence change determined. In most cases absorptive quench due to the presence of ligand was not observed. For slow-binding inhibitors, onset of inhibition curves were collected for at least 45 minutes so that equilibrium was established. Steady-state rates of fluorescence change were obtained by fitting a curve to an equation for a single exponential decay containing a linear phase. The fitted value of the linear phase was taken as the steady-state rate. The steady-state rates were fitted to the Michaelis equation describing competitive inhibition by non-linear methods. Data resulting from tight-binding inhibition was analyzed, and Ki,app determined by fitting the data to the tight-binding equation of Morrison (Biochem. Biophys. Acta, vol. 185, pp. 269-286 (1969)) by non-linear methods.
(§4) All Ki values are in nM units.

[1] = biological target: human progelatinase A (GelA) (Homo sapiens, UniProt P08253); assay: In vitro MMP inhibition assay (hydrolysis of fluorogenic MCA peptide substrate), gelatinase A; conditions: Table 1; Ki,app; MCA peptide substrate 10 μM, 37° C., pH 7.5, 2% DMSO; read-out: Gel A
Sequence of human progelatinase A (GelA) (P08253 110-446 limits assumed): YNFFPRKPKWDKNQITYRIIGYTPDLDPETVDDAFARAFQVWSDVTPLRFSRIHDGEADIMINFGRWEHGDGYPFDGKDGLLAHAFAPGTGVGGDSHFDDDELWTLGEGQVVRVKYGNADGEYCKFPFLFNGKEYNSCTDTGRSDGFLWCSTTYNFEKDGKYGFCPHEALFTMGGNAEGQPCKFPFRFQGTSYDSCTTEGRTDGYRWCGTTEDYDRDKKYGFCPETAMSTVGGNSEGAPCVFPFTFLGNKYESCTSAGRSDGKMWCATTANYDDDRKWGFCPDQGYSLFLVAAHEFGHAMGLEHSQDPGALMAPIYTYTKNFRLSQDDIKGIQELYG
Protocol: The catalytic and fibronectin-like portion of human progelatinase A (GelA) was expressed as a fusion protein with ubiquitin in E. Coli. Assays were carried out on autocatalytically activated material.
as §1, §2, §3, §4

[2] = biological target: T1, human collagenase-3 (Coll3) (Homo sapiens, UniProt P45452); assay: In vitro MMP inhibition assay (hydrolysis of fluorogenic MCA peptide substrate), collagenase-3; conditions: Table 1; Ki,app; MCA peptide substrate 10 μM, 37° C., pH 7.5, 2% DMSO
T1 construct: catalytic domain liberated with APMA
Protocol: The propeptide and catalytic domain of human collagenase-3 (Coll3) was expressed in E. coli as an N-terminal fusion protein with ubiquitin. After purification of the fusion from inclusion bodies, the catalytic domain was liberated by treatment with 2 mM APMA at room temperature overnight. Final purification was completed using copper chelate chromatography.
as §1, §2, §3, §4

Human matrilysin (Matr) = biological target: T2, Human matrilysin (Matr) (Homo sapiens, UniProt P09237); assay: In vitro MMP inhibition assay (hydrolysis of fluorogenic MCA peptide substrate), matrilysin; conditions: Table 1; Ki,app; MCA peptide substrate 10 μM, 37° C., pH 7.5, 2% DMSO; read-out: Matri Ki
T2 construct: catalytic domain liberated with APMA
T2 sequence (P09237 95-267): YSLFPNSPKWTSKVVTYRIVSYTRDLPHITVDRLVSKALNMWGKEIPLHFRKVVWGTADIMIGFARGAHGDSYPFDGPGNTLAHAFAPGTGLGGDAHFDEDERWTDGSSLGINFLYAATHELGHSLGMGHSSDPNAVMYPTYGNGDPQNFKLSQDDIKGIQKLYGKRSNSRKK
Protocol: Human matrilysin (Matr) was expressed in E. coli as a fusion protein with ubiquitin. After purification of the matrilysin/ubiquitin fusion from inclusion bodies, the catalytic domain was liberated by treatment with 2 mM APMA at 37° C. for 2 hours. Final purification was complete using copper chelate chromatography.
as §1, §2, §3, §4

[3] = biological target: T3, human collagenase-1 (HFC) (Homo sapiens, UniProt P03956); assay: In vitro MMP inhibition assay (hydrolysis of fluorogenic MCA peptide substrate), fibroblast collagenase-1; conditions: Table 1; Ki,app; MCA peptide substrate 10 μM, 37° C., pH 7.5, 2% DMSO
T3 sequence (P03956 100-269 limits assumed): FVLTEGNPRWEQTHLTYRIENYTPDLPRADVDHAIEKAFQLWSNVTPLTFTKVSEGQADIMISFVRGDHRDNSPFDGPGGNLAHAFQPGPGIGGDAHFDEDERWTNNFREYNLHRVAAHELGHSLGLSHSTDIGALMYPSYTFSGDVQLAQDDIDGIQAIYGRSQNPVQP
Protocol: The catalytic domain of human collagenase-1 was expressed as a fusion protein with ubiquitin in E. coli (see Gehring, E. R., J Biol. Chem., 1995, 270, 22507). After purification of the fusion protein, the fibroblast collagenase-1 catalytic domain (HFC) was released either by treatment with purified, active stromelysin-1 (1:50 wlw ratio), which generated nearly 100% N-terminal Phe1, or by autoprocessing the concentrated collagenase-1 fusion and then incubating at 37° C. for 1 hour. Final purification was completed using zinc chelate chromatography.
as §1, §2, §3, §4

Sequence of human stromelysin (Sln) (P08254 100-272 limits assumed): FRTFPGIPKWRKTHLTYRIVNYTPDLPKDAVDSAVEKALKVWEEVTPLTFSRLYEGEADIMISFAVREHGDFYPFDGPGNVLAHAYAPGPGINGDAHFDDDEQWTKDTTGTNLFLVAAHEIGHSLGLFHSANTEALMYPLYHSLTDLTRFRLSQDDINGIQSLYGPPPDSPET

Structure (SMILES)	Ki (human stromelysin (Sln))	Ki [1]	Ki [2]	Ki (Human matrilysin (Matr))	Ki [3]
CC(C)(SCc1ccccn1)[C@@H](NS(=O)(=O)c1ccc(Oc2ccc(Br)cc2)cc1)C(=O)O [Example 3d, N-[4-(4-Bromophenoxy)benzenesulfonyl]--S--[(pyrid-2-yl)methyl]-D-penicillamine]	1500 nM	7 nM	178 nM	75000 nM	34000 nM
CC(C)([C@@H](NS(=O)(=O)c1ccc(Oc2ccc(Br)cc2)cc1)C(=O)NO)[S+]([O-])Cc1ccccn1 (mixture of isomers) [Example 11, 2(S), S(R/S)--N-hydroxy-3-methyl-3-(pyrid-2-yl) methylsulfinyl-2-[(4-(4-bromophenoxy)benzenesulfonyl)amino]butanamide]	1 nM	0.049 nM	0.028 nM	–	24 nM
CC(C)(SCc1ccccn1)[C@@H](NS(=O)(=O)c1ccc(Oc2ccc(F)cc2)cc1)C(=O)NO [Example 9h, 2(S)--N-hydroxy-3-methyl-3-(pyrid-2-yl)methylsulfanyl-2-[(4-(4-fluorophenoxy)benzenesulfonyl)amino]butanamide]	0.84 nM	0.031 nM	0.057 nM	–	17 nM
CC(C)(C)[C@@H](NS(=O)(=O)c1ccc(Oc2ccc(Cl)cc2)cc1)C(=O)O [Example 3p, N-[4-(4-Chlorophenoxy)benzenesulfonyl]-D-tert-leucine]	9500 nM	62 nM	203 nM	–	–
CC(C)(SCc1ccccn1)[C@@H](NS(=O)(=O)c1ccc(Oc2ccc(F)cc2)cc1)C(=O)O [Example 3c, N-[4-(4-Fluorophenoxy)benzenesulfonyl]--S--[(pyrid-2-yl)methyl]-D-penicillamine]	2550 nM	44 nM	110 nM	–	–
CC(C)(SCc1ccccc1)[C@@H](NS(=O)(=O)c1ccc(Oc2ccccc2)cc1)C(=O)O [Example 3m, S-Benzyl--N--[4-phenoxybenzenesulfonyl]-D-penicillamine]	1000 nM	46 nM	907 nM	–	–
Cc1cc(CSC(C)(C)[C@@H](NS(=O)(=O)c2ccc(Sc3ccncc3)cc2)C(=O)NO)no1 [Example 10b, 2(S)--N-hydroxy-3-methyl-3-(5-methylisoxazol-3-yl)methylsulfanyl-2-[(4-{(pyrid-4-yl)sulfanyl}benzenesulfonyl)amino]butanamide]	38 nM	0.75 nM	1.6 nM	–	–
CSC(C)(C)[C@@H](NS(=O)(=O)c1ccc(Oc2ccccc2)cc1)C(=O)O [Example 6a, S-Methyl--N--[4-(phenoxy)benzenesulfonyl]-D-penicillamine]	4850 nM	351 nM	661 nM	–	–
CC(C)(SCC(=O)O)[C@@H](NS(=O)(=O)c1ccc(Oc2ccc(F)cc2)cc1)C(=O)O [Example 5, S-Carboxymethyl--N--[4-(4-fluorophenoxy)benzenesulfonyl]-D-penicillamine]	27300 nM	1550 nM	1620 nM	–	–
CSC(C)(C)[C@@H](NS(=O)(=O)c1ccc(Oc2ccc(Cl)cc2)cc1)C(=O)O [Example 6b, S-Methyl--N--[4-(4-chlorophenoxy)benzenesulfonyl]-D-penicillamine]	17000 nM	215 nM	696 nM	–	–
CC(C)(C)OC(=O)CSC(C)(C)[C@@H](NS(=O)(=O)c1ccc(Oc2ccc(F)cc2)cc1)C(=O)NO [Example 9j, 2(S)--N-hydroxy-3-methyl-3-(t-butoxycarbonyl)methylsulfanyl-2-[(4-(4-fluorophenoxy)benzenesulfonyl)amino]butanamide]	1.6 nM	0.048 nM	0.091 nM	–	33 nM
CC(C)(SCc1cccnc1)[C@@H](NS(=O)(=O)c1ccc(Oc2ccc(F)cc2)cc1)C(=O)O [Example 3e, N-[4-(4-Fluorophenoxy)benzenesulfonyl]--S--[(pyrid-3-yl)methyl]-D-penicillamine]	6900 nM	517 nM	1100 nM	–	–
CC(C)(C)[C@@H](NS(=O)(=O)c1ccc(Oc2ccccc2)cc1)C(=O)O [Example 3r, N-[4-Phenoxybenzenesulfonyl]-D-tert-leucine]	12700 nM	104 nM	616 nM	–	–
CC(C)(SCC(=O)O)[C@@H](NS(=O)(=O)c1ccc(Oc2ccc(F)cc2)cc1)C(=O)NO [Example 12, 2(S)--N-hydroxy-3-methyl-3-(carboxymethyl)sulfanyl-2-[(4-(4-fluorophenoxy)benzenesulfonyl)amino]butanamide]	5.7 nM	0.53 nM	0.27 nM	–	–
CC(C)(SCc1ccncc1)[C@@H](NS(=O)(=O)c1ccc(Oc2ccc(F)cc2)cc1)C(=O)O [Example 3f, N-[4-(4-Fluorophenoxy)benzenesulfonyl]--S--[(pyrid-4-yl)methyl]-D-penicillamine]	6300 nM	311 nM	829 nM	–	–
CSC(C)(C)[C@@H](NS(=O)(=O)c1ccc(Oc2ccccc2)cc1)C(=O)NO [Example 9a, 2(S)--N--Hydroxy-3-methyl-3-methylsulfanyl-2-[(4-phenoxybenzenesulfonyl)amino]butanamide]	2.2 nM	0.069 nM	0.067 nM	–	–
CC(C)(SCc1ccccn1)[C@@H](NS(=O)(=O)c1ccc(Oc2ccc(-c3ccoc3)cc2)cc1)C(=O)O [Example 4e, N-[4-(4-(Furan-3-yl)phenoxy)benzenesulfonyl]--S--[(pyrid-2-yl)methyl]-D-penicillamine]	680 nM	7.1 nM	153 nM	–	–
CC(C)(SCc1ccccn1)[C@@H](NS(=O)(=O)c1ccc(Oc2ccc(Br)cc2)cc1)C(=O)NO [Example 9e, 2(S)--N-hydroxy-3-methyl-3-(pyrid-2-yl)methylsulfanyl-2-[(4-(4-bromophenoxy)benzenesulfonyl)amino]butanamide]	0.26 nM	–	–	7.9 nM	4.1 nM
CC(C)(SCc1ccccn1)[C@@H](NS(=O)(=O)c1ccc(Oc2ccc(I)cc2)cc1)C(=O)O [Example 3i, N-[4-(4-Iodophenoxy)benzenesulfonyl]--S--[(pyrid-2-yl)methyl]-D-penicillamine]	1180 nM	3.3 nM	196 nM	–	–

— patent US5985900A, “Metalloproteinase inhibitors, pharmaceutical compositions containing them and their pharmaceutical uses” (Agouron Pharmaceuticals, Inc., priority 1998, dated 1999)
